Test results from patent publication US8580752B2, “Aromatic amides as potentiators of bioefficacy of anti-infective drugs” (priority 2005, dated 2013).
Values after ≈ are worked out from the molar mass of the structure shown. Read-outs that look alike come from different tables or passages of the source.

How the values were obtained:
[1] = tested on: Gm −ve bacteria; test: microbe, parasite or virus in culture; assay type: cell-based, Gram negative; conditions: drug alone, Gm −ve bacteria
[2] = tested on: M. tb; test: MIC of anti infective drugs alone and with potentiators; assay type: cell-based, Mycobacterium tuberculosis; conditions: Mycobacterium tuberculosis, drug alone
[3] = tested on: Gm +ve bacteria; test: microbe, parasite or virus in culture; assay type: cell-based, Gram positive; conditions: for MIC: drug alone, Gm +ve bacteria
[4] = tested on: M. tuberculosis H37Rv; test: MIC by checkerboard method; assay type: cell-based, Mycobacterium tuberculosis; conditions: for MIC: Mycobacterium tuberculosis, Rifampicin alone
[5] = tested on: M. intracellure ATCC 13950; test: MIC by checkerboard method; assay type: cell-based
[6] = tested on: M. avium ATCC 49601; test: MIC by checkerboard method; assay type: cell-based
[7] = tested on: M. tuberculosis 611; test: MIC by checkerboard method; assay type: cell-based, Mycobacterium tuberculosis
Protocol: (§1) This checkerboard technique can be performed with liquid or semisolid (agar) media.
(§2) In this method the agar (Mueller Hinton agar, Middlebrook 7H10 agar) was autoclaved and allowed to cool to 55° C. to 50° C. The combination of the standard drug and the potentiator was added to the agar. Serial two fold dilutions of each of standard drug and the potentiator were prepared in appropriate solvents. In order to maintain the desired concentrations of both agar and drugs, and to rule out the effect of solvent, the volume of solvent (containing standard drug or potentiator) added to agar was kept small (i.e ≦5% of the total volume). After the agar plates have been poured and allowed to dry, the bacteria to be tested were applied to the surface of agar with a replicating device designed to deliver a standard inoculum (approx 10^4 cfu|spot). The plates were incubated at 37° C. for 24 hrs (3 weeks in case of Mycobacterium tuberculosis)
(§3) The above-mentioned checkerboard was also performed with liquid media in a microtiter plate format. This method was used to study the combination of antibacterial/antifungal/antiviral drugs with potentiator.

[8] = tested on: M. tuberculosis 615; test: MIC by checkerboard method; assay type: cell-based, Mycobacterium tuberculosis
Protocol: as §1, §2, §3

[9] = tested on: MRSA; test: MIC by checkerboard method, comparison with piperine; assay type: cell-based, Staphylococcus aureus; conditions: Staphylococcus aureus, Tables 5A/5B, Amikacin alone, read-out: MIC Amikacin
[10] = tested on: S epidermidis ATCC 12228; test: MIC by checkerboard method; assay type: cell-based; conditions: Amikacin alone, read-out: MIC of Amikacin
[11] = tested on: B cereus RRL 101; test: MIC by checkerboard method; assay type: cell-based; conditions: Amikacin alone, read-out: MIC of Amikacin
[12] = tested on: MRSA 33; test: MIC by checkerboard method; assay type: cell-based; conditions: Staphylococcus aureus; Amikacin alone; S aureus MRSA 33; read-out: MIC of Amikacin
[13] = tested on: MRSA 450; test: MIC by checkerboard method; assay type: cell-based; conditions: Staphylococcus aureus; Amikacin alone; S aureus MRSA 450; read-out: MIC of Amikacin
[14] = tested on: S aureus ATCC 29213; test: MIC by checkerboard method; assay type: cell-based, Staphylococcus aureus; conditions: Staphylococcus aureus
[15] = with compound of formula 1a 0.09 μg/ml
[16] = with compound of formula 1a 0.78 μg/ml
[17] = with compound of formula 1a 6.25 μg/ml
[18] = with compound of formula 1a 50.0 μg/ml
[19] = Mycobacterium tuberculosis, Rifampicin alone

Compound: CC1COc2c(N3CCN(C)CC3)c(F)cc3c(=O)c(C(=O)O)cn1c23 (centres unmarked) [Ofloxacin, reference compound]
- MIC ([1]; read-out: MIC Drug alone): 0.06 to 32 µg/mL (≈ 0.166 to 88.6 µM)
- MIC [2]: 0.5 to 2.5 µg/mL
- MIC [3]: 12 to 32 µg/mL (≈ 33.2 to 88.6 µM)

Compound: CCC(/C=C/C(=O)N1CCCC1)=C\c1ccc2c(c1)OCO2 [5-(3,4-methylenedioxyphenyl)-4-ethyl-2E,4E-pentadienoic acid pyrrolidide]
- MIC of Rifampicin ([4]; with compound of formula 1a 0.09 μg/ml, M. tuberculosis H37Rv): 0.03 µg/mL
- MIC of Rifampicin ([4]; with compound of formula 1a 0.78 μg/ml, M. tuberculosis H37Rv): 0.03 µg/mL
- MIC of Rifampicin ([4]; with compound of formula 1a 6.25 μg/ml, M. tuberculosis H37Rv): 0.03 µg/mL
- MIC of Rifampicin ([4]; with compound of formula 1a 50.0 μg/ml, M. tuberculosis H37Rv): 0.03 µg/mL
- MIC of Rifampicin [5, 15]: 2.0 µg/mL
- MIC of Rifampicin [5, 16]: 1.0 µg/mL
- MIC of Rifampicin [5, 17]: 1.0 µg/mL
- MIC of Rifampicin [5, 18]: 1.0 µg/mL
- MIC of Rifampicin [6, 15]: 2.0 µg/mL
- MIC of Rifampicin [6, 16]: 2.0 µg/mL
- MIC of Rifampicin [6, 17]: 1.0 µg/mL
- MIC of Rifampicin [6, 18]: 1.0 µg/mL
- MIC of Rifampicin [7, 15]: 0.03 µg/mL
- MIC of Rifampicin [7, 16]: 0.03 µg/mL
- MIC of Rifampicin [7, 17]: 0.03 µg/mL
- MIC of Rifampicin [7, 18]: 0.03 µg/mL
- MIC of Rifampicin [8, 15]: 0.03 µg/mL
- MIC of Rifampicin [8, 16]: 0.03 µg/mL
- MIC of Rifampicin [8, 17]: 0.03 µg/mL
- MIC of Rifampicin [8, 18]: 0.03 µg/mL

Compound: CCC(CCC(=O)N1CCCCC1)Cc1ccc2c(c1)OCO2 (centres unmarked) [5-(3,4-methylenedioxyphenyl)-4-ethyl-pentanoic acid piperidide]
- % decrease in MIC [3]: 0-50%
- MIC Drug + potentiator [3]: 0.03 to 0.25 µg/mL

Compound: NCC[C@H](O)C(=O)N[C@@H]1C[C@H](N)[C@@H](O[C@H]2O[C@H](CN)[C@@H](O)[C@H](O)[C@H]2O)[C@H](O)[C@H]1O[C@H]1O[C@H](CO)[C@@H](O)[C@H](N)[C@H]1O [Amikacin, reference compound]
- MIC [9]: 4 µg/mL
- MIC [10]: 1 µg/mL
- MIC [11]: 1 µg/mL
- MIC [12]: 8 µg/mL
- MIC [13]: 16 µg/mL
- MIC ([14]; ATCC29213, Amikacin alone, read-out: MIC of Amikacin): 2 µg/mL
- MIC ([14]; ATCC29213, Tables 5A/5B, Amikacin alone, read-out: MIC Amikacin): 2 µg/mL

Compound: CCn1cc(C(=O)O)c(=O)c2cc(F)c(N3CCNCC3)cc21 [Norfloxacin, reference compound]
- MIC Drug alone [1]: 0.03 to 64 µg/mL
- MIC [3]: 0.12 to 32 µg/mL (≈ 0.376 to 100 µM)

Compound: CO[C@H]1/C=C/O[C@@]2(C)Oc3c(C)c(O)c4c(O)c(c(/C=N/N5CCN(C)CC5)c(O)c4c3C2=O)NC(=O)/C(C)=C\C=C\[C@H](C)[C@H](O)[C@@H](C)[C@@H](O)[C@@H](C)[C@H](OC(C)=O)[C@@H]1C [Rifampicin, reference compound]
- MIC ([4]; M. tuberculosis H37Rv, read-out: MIC of Rifampicin): 0.12 µg/mL
- MIC ([4]; Tables 5A/5B, M tuberculosis H37Rv, read-out: MIC Rifampicin): 0.12 µg/mL
- MIC ([5]; Rifampicin alone): 2 µg/mL
- MIC ([6]; Mycobacterium avium, ATCC49601, Rifampicin alone): 2 µg/mL
- MIC [7, 19]: 0.06 µg/mL
- MIC [8, 19]: 0.06 µg/mL

Compound: CCC(/C=C/C(=O)N1CCCCC1)=C\c1cc2c(c([N+](=O)[O-])c1)OCO2 [5-(3,4-methylenedioxy-5-nitrophenyl)-4-ethyl-2E,4E-pentadienoic acid piperidide]
- % decrease in MIC [3]: 0-50%
- MIC Drug + potentiator [3]: 0.03 to 0.25 µg/mL

Compound: CC(/C=C/C(=O)N1CCN(C)CC1)=C\c1ccc2c(c1)OCO2 [5-(3,4-methylenedioxyphenyl)-4-methyl-2E,4E-pentadienoic acid-N-methylpiperazide]
- % decrease in MIC [3]: 50-76%
- MIC Drug + potentiator [3]: 0.06 to 0.12 µg/mL
